Measurements from patent US12384740B2, “Cationic lipids and transfection methods” (Factor Bioscience Inc., priority 2019, dated 2025).

Assays:
Assay type in all cases: cell-based
[1] = tested on: neonatal human epidermal keratinocytes (HEKn); assay: Transfection of HEKn with GFP-encoding RNA complexed with lipid, mean fluorescence intensity per cell (Table 1); conditions: 20,000 HEKn per well, 24-well plate; 100 ng in vitro transcribed GFP RNA; 24 hours after transfection
Protocol: Stock solutions of lipid in ethanol were prepared at concentrations of between 5 mg/mL and 20 mg/mL and stored at −20° C. To perform transfections, nucleic acid was first diluted in DMEM (1 μg of nucleic acid in 50 μL of DMEM), then the desired amount of lipid stock solution was added. After adding the lipid, the solution was mixed thoroughly, and complexes were allowed to form for between about 5 minutes and about 25 minutes before adding to cells. For the experiments depicted in FIG. 1 through FIG. 6, the lipid was used without the acetone purification described in Example 5. Table 1 depicts the results of an experiment in which 20,000 neonatal human epidermal keratinocytes (HEKn) per well of a 24-well plate were transfected with 100 ng of in vitro transcribed RNA encoding green fluorescent protein (GFP) complexed with the indicated lipids. Fluorescence was measured 24 hours after transfection. Numbers indicate mean fluorescence intensity per cell (a.u.).

[2] = tested on: confluent layer of primary human epidermal keratinocytes; assay: Transfection of a confluent layer of primary human epidermal keratinocytes with GFP RNA (FIG. 5A/5B); conditions: 400 ng GFP RNA; 100% FBS; images 24 hours following transfection; both lipid-to-RNA mass ratios tested
Protocol: (§1) FIG. 1 depicts primary human epidermal keratinocytes cultured in a 24-well plate, and transfected with 400 ng per well of in vitro transcribed RNA encoding green fluorescent protein (GFP) complexed with the indicated lipid and with the indicated mass ratio of lipid to RNA. Complexation was performed in DMEM, and transfections were performed in 100% fetal bovine serum (FBS). Images were taken eight hours following transfection.
FIG. 5A depicts the results of an experiment conducted as in FIG. 4, but with a confluent layer of primary human epidermal keratinocytes instead of hPBMCs. Images were taken 24 hours following transfection.
FIG. 5B depicts the experiment of FIG. 5A, shown at higher magnification.
(§2) Stock solutions of lipid in ethanol were prepared at concentrations of between 5 mg/mL and 20 mg/mL and stored at −20° C. To perform transfections, nucleic acid was first diluted in DMEM (1 μg of nucleic acid in 50 μL of DMEM), then the desired amount of lipid stock solution was added. After adding the lipid, the solution was mixed thoroughly, and complexes were allowed to form for between about 5 minutes and about 25 minutes before adding to cells. For the experiments depicted in FIG. 1 through FIG. 6, the lipid was used without the acetone purification described in Example 5.

[3] = tested on: human peripheral blood mononuclear cells (hPBMCs); assay: Transfection of hPBMCs with GFP RNA (FIG. 4); conditions: 400 ng GFP RNA; 100% FBS; images 16 hours following transfection; both lipid-to-RNA mass ratios tested
Protocol: as §1
FIG. 4 depicts the results of an experiment conducted as in FIG. 1, but with human peripheral blood mononuclear cells (hPBMCs) instead of keratinocytes. Images were taken 16 hours following transfection. “LF3000” indicates cells transfected with LIPOFECTAMINE 3000 (cationic liposome formulation) commercial transfection reagent. “Neg.” indicates un-transfected cells.
as §2

[4] = tested on: primary human epidermal keratinocytes; assay: Transfection of primary human epidermal keratinocytes with GFP RNA in 100% FBS (FIG. 1, 2, 7)
Protocol: as §1
FIG. 2 depicts the experiment of FIG. 1, with fluorescence measured at the indicated time points following transfection using DHDLinS.
FIG. 3 depicts the results of an experiment conducted as in FIG. 1, but with the indicated amounts of RNA (in nanograms) and the indicated lipid-to-RNA mass ratios (in micrograms of lipid per microgram of RNA). Images were taken 16 hours following transfection. As shown in the figure, all RNA amounts and lipid-to-RNA mass ratios tested yielded a fluorescent signal.
FIG. 7 depicts the results of an experiment conducted as in FIG. 3, but with DHDLinS purified by extraction with acetone as described in Example 5.
as §2

[5] = tested on: primary human adult dermal fibroblasts; assay: Transfection of primary human adult dermal fibroblasts with GFP RNA (FIG. 6A/6B); conditions: 400 ng GFP RNA; 100% FBS; images 16 hours following transfection; both lipid-to-RNA mass ratios tested
Protocol: as §1
FIG. 6A depicts the results of an experiment conducted as in FIG. 4, but with primary human adult dermal fibroblasts instead of hPBMCs. Images were taken 16 hours following transfection.
FIG. 6B depicts the experiment of FIG. 6A, shown at higher magnification.
as §2

[6] = time course of FIG. 1 experiment, 400 ng GFP RNA, 100% FBS

Molecule	Fluorescence Intensity (mean fluorescence intensity per cell) [1] [a.u.]	other results
CCCCC/C=C\C/C=C\CCCCCCCCN(CCCCCCCCCCCCN(CCCCCCCC/C=C\C/C=C\CCCCC)CC(O)CN)CC(O)CN (centres unmarked) [Formula I (n = 12), N^1,N^12-dilinoleyl-N,N^12-di-(2-hydroxy-3-aminopropyl)-diaminododecane]	5631	–
CCCCC/C=C\C/C=C\CCCCCCCCN(CCCCCCN(CCCCCCCC/C=C\C/C=C\CCCCC)CC(O)CN)CC(O)CN (centres unmarked) [Formula I (n = 6), N^1,N^6-dilinoleyl-N^1,N^6-di-(2-hydroxy-3-aminopropyl)-diaminohexane]	8596	–
CCCCC/C=C\C/C=C\CCCCCCCCN(CCCCCCCCCCN(CCCCCCCC/C=C\C/C=C\CCCCC)CC(O)CN)CC(O)CN (centres unmarked) [Formula I (n = 10), N^1,N^10-dilinoleyl-N^1,N^10-di-(2-hydroxy-3-aminopropyl)-diaminodecane]	7842	–
CCCCC/C=C\C/C=C\CCCCCCCCN(CCCCN(CCCCCCCC/C=C\C/C=C\CCCCC)CC(O)CN)CC(O)CN (centres unmarked) [DHDLinS, N^1,N^4-dilinoleyl-N^1,N^4-di-(2-hydroxy-3-aminopropyl)-diaminobutane]	8009	Transfection of confluent keratinocytes (GFP fluorescence images) [2]: effectively transfected; Transfection of hPBMCs (GFP fluorescence images) [3]: effectively transfected; Transfection efficiency (GFP fluorescence images) ([4]; 400 ng GFP RNA per well, transfection in 100% FBS, images eight hours following transfection, lipid without acetone purification): transfected with high efficiency; Change of fluorescence signal with lipid-to-RNA mass ratio ([4]; DHDLinS purified by extraction with acetone, lipid-to-RNA mass ratios greater than 2 μg/μg, images 16 hours following transfection): minimal increase in fluorescence signal; Signal intensity and number of fluorescent cells over time [4, 6]: increased for several hours following transfection; Time of first detection of fluorescent signal following transfection [4, 6]: detected one hour following transfection; Transfection of dermal fibroblasts (GFP fluorescence images) [5]: effectively transfected
CCCCC/C=C\C/C=C\CCCCCCCCN(CCCCCN(CCCCCCCC/C=C\C/C=C\CCCCC)CC(O)CN)CC(O)CN (centres unmarked) [Formula I (n = 5), N^1,N^5-dilinoleyl-N^1,N^5-di-(2-hydroxy-3-aminopropyl)-diaminopentane]	7554	–
N^1,N^2-dilinoleyl-N^1,N^2-di-(2-hydroxy-3-aminopropyl)-diaminoethane [Formula I (n = 2)]	6623	–
CCCCC/C=C\C/C=C\CCCCCCCCN(CCCCCCCCN(CCCCCCCC/C=C\C/C=C\CCCCC)CC(O)CN)CC(O)CN (centres unmarked) [Formula I (n = 8), N^1,N^8-dilinoleyl-N^1,N^8-di-(2-hydroxy-3-aminopropyl)-diaminooctane]	9170	–
